Measured values taken from US11739074B2, “Ras inhibitors” (Revolution Medicines, Inc., priority 2019, dated 2023).
Read-outs that look alike come from different tables or passages of the source.

Columns and labels:
KRAS WT = KRAS WT (Homo sapiens, UniProt P01116+P62937); assay: Ras-Raf disruption/FRET/MOA assay, KRAS WT; type: biochemical
Method in brief: (§1)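 TR-FRET read-out of the K-Ras:RAF complex: decreased ratio relative to DMSO indicates compound-driven cyclophilin A ternary complex formation. Compound (top 30 µM, 3-fold, 10 points), 25 µM cyclophilin A, 12.5 nM GMPPNP-loaded His6-K-Ras and 50 nM GST-BRAF RBD were incubated 3 h at 25 °C (pH 7.3), followed by Eu/APC antibodies for 1.5 h.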

KRAS G13C = KRAS G13C (Homo sapiens, UniProt P01116+P62937, G13C); assay: Ras-Raf disruption/FRET/MOA assay, KRAS G13C; type: biochemical
Method in brief: as §1

AsPC-1 (K-Ras G12D) [1] = assay: CellTiter-Glo cell viability assay, AsPC-1; type: cell-based; conditions: Homo sapiens, ASPC1, 120 h
Method in brief: (§2)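 Cells already in plates received compound by direct dispensing. After incubation to day 5, plates sat at room temperature roughly 30 minutes, then ATP-based luminescence was measured and values derived from a four-parameter fit of DMSO-normalized data.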

KRAS G13D = KRAS G13D (Homo sapiens, UniProt P01116+P62937, G13D); assay: Ras-Raf disruption/FRET/MOA assay, KRAS G13D; type: biochemical
Method in brief: as §1

KRAS G12D = KRAS G12D (Homo sapiens, UniProt P01116+P62937, G12D); assay: Ras-Raf disruption/FRET/MOA assay, KRAS G12D; type: biochemical
Method in brief: as §1

NRAS G12C = biological target: T1, NRAS G12C (Homo sapiens, UniProt P01111+P62937, G12C); assay: Ras-Raf disruption/FRET/MOA assay, NRAS G12C; type: biochemical
T1 construct: His6
Method in brief: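 Disruption of Ras:RAF binding was read as a drop in TR-FRET ratio versus DMSO controls. The buffer was 25 mM HEPES pH 7.3, 0.002% Tween20, 0.1% BSA, 100 mM NaCl and 5 mM MgCl2. Compounds were tested as a 10-point 3-fold dilution series from 30 μM. Detection used 10 nM anti-His Eu-W1024 and 50 nM anti-GST allophycocyanin.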

KRAS G12S = KRAS G12S (Homo sapiens, UniProt P01116+P62937, G12S); assay: Ras-Raf disruption/FRET/MOA assay, KRAS G12S; type: biochemical
Method in brief: as §1

AsPC-1 (K-Ras G12D) [2] = assay: Potency assay: pERK in AsPC-1 cells; type: cell-based; conditions: Homo sapiens
KRAS G12V = KRAS G12V (Homo sapiens, UniProt P01116+P62937, G12V); assay: Ras-Raf disruption/FRET/MOA assay, KRAS G12V; type: biochemical
Method in brief: as §1

NCI-H358 (K-Ras G12C) = assay: CellTiter-Glo cell viability assay, H358; type: cell-based; conditions: Homo sapiens, NCI-H358, 120 h
Method in brief: as §2

KRAS G12C = KRAS G12C (Homo sapiens, UniProt P01116+P62937, G12C); assay: Ras-Raf disruption/FRET/MOA assay, KRAS G12C; type: biochemical
Method in brief: as §1

[3] = disruption of BRAF RBD binding, with Cyclophilin A, read-out: KRAS WT FRET IC50
[4] = disruption of BRAF RBD binding, with Cyclophilin A, read-out: KRAS G13C FRET IC50
[5] = read-out: AsPC-1 Cell Viability IC50
[6] = disruption of BRAF RBD binding, with Cyclophilin A, read-out: KRAS G13D FRET IC50
[7] = disruption of BRAF RBD binding, with Cyclophilin A, read-out: KRAS G12D FRET IC50
[8] = NRAS G12C, read-out: NRAS G12C FRET data IC50
[9] = disruption of BRAF RBD binding, with Cyclophilin A, read-out: KRAS G12S FRET IC50
[10] = ASPC1, read-out: pERK EC50 (AsPC-1 KRAS G12D)
[11] = disruption of BRAF RBD binding, with Cyclophilin A, read-out: KRAS G12V FRET IC50
[12] = read-out: H358 Cell Viability IC50
[13] = disruption of BRAF RBD binding, with Cyclophilin A, read-out: KRAS G12C FRET IC50
[14] = AsPC-1, K-Ras G12D, 5-day treatment, read-out: AsPC-1 Cell Viability IC50
[15] = ASPC1, AsPC-1 cells, K-Ras G12D, read-out: pERK EC50 (AsPC-1 KRAS G12D)
[16] = NCI-H358, K-Ras G12C, 5-day treatment, read-out: H358 Cell Viability IC50
[17] = read-out: AsPC-1 Cell Viability IC50, AsPC-1, K-Ras G12D, 5-day treatment
[18] = NRAS G12C FRET data IC50, NRAS G12C
[19] = read-out: H358 Cell Viability IC50, NCI-H358, K-Ras G12C, 5-day treatment

T1 sequence (P01111 whole entry G12C): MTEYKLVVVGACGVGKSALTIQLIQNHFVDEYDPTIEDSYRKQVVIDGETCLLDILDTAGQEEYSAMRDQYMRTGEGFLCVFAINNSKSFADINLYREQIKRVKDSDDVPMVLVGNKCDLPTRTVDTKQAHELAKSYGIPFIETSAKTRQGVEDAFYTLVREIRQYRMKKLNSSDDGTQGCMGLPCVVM
T1 sequence (P62937 whole entry): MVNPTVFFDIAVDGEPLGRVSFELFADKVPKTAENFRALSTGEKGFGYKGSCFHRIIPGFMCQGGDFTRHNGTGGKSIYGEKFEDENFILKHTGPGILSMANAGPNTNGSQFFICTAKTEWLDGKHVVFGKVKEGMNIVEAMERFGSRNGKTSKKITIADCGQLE
Chain of KRAS G12D (P01116 1-169 isoform P01116-2 G12D limits assumed): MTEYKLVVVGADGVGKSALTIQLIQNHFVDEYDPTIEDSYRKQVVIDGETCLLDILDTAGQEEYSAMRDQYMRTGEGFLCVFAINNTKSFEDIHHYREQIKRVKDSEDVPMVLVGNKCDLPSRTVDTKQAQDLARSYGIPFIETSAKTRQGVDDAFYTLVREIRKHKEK
Chain of KRAS G12D (P62937 whole entry): as the sequence (P62937 whole entry) above
Chain of KRAS G13D (P01116 1-169 isoform P01116-2 G13D limits assumed): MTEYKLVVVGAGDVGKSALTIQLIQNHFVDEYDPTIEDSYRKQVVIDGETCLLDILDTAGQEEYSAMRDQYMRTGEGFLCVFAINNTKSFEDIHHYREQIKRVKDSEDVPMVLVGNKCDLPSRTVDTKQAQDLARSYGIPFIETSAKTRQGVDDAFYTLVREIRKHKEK
Chain of KRAS G13D (P62937 whole entry): as the sequence (P62937 whole entry) above
Chain of KRAS G12S (P01116 1-169 isoform P01116-2 G12S limits assumed): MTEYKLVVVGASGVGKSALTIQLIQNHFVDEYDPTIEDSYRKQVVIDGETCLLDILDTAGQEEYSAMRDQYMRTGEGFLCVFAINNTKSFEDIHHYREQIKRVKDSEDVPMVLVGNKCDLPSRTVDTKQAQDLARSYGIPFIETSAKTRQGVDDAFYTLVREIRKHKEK
Chain of KRAS G12S (P62937 whole entry): as the sequence (P62937 whole entry) above
Chain of KRAS WT (P01116 1-169 isoform P01116-2 limits assumed): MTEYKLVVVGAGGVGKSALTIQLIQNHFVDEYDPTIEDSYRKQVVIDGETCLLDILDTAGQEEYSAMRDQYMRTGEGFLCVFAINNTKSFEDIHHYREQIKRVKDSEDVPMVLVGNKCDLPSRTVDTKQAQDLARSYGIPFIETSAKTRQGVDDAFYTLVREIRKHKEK
Chain of KRAS WT (P62937 whole entry): as the sequence (P62937 whole entry) above
Chain of KRAS G12C (P01116 1-169 isoform P01116-2 G12C limits assumed): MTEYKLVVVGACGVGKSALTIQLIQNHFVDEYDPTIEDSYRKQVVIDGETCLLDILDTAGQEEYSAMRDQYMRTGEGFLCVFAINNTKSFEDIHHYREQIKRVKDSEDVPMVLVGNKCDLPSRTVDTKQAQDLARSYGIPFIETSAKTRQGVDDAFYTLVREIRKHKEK
Chain of KRAS G12C (P62937 whole entry): as the sequence (P62937 whole entry) above
Chain of KRAS G13C (P01116 1-169 isoform P01116-2 G13C limits assumed): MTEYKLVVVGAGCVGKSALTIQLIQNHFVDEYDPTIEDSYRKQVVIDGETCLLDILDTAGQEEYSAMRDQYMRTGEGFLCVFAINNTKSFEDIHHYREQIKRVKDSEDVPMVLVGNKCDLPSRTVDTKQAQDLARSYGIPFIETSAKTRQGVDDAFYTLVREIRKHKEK
Chain of KRAS G13C (P62937 whole entry): as the sequence (P62937 whole entry) above
Chain of KRAS G12V (P01116 1-169 isoform P01116-2 G12V limits assumed): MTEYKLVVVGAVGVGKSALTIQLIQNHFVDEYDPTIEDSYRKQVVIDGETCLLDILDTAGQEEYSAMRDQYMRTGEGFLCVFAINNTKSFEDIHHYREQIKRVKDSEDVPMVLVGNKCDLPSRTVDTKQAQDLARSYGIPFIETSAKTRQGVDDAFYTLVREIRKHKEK
Chain of KRAS G12V (P62937 whole entry): as the sequence (P62937 whole entry) above

Structure (SMILES)	IC50 (KRAS WT; [3])	IC50 (KRAS G13C; [4])	IC50 (AsPC-1 (K-Ras G12D) [1]; [5])	IC50 (KRAS G13D; [6])	IC50 (KRAS G12D; [7])	IC50 (NRAS G12C; [8])	IC50 (KRAS G12S; [9])	EC50 (AsPC-1 (K-Ras G12D) [2]; [10])	IC50 (KRAS G12V; [11])	IC50 (NCI-H358 (K-Ras G12C); [12])	IC50 (KRAS G12C; [13])	further results
CCn1c(-c2cnccc2COC)c2c3cc(ccc31)-c1cc(O)cc(c1)C[C@H](NC(=O)[C@H](C(C)C)N(C)C(=O)CN(C)C(=O)C1CN1S(C)(=O)=O)C(=O)N1CCC[C@H](N1)C(=O)OCC(C)(C)C2 (stereo partly shown) [Compound 13]	10 to 100 nM	10 to 100 nM	1000 to 10000 nM	100 to 1000 nM	100 to 1000 nM	10 to 100 nM	10 to 100 nM	< 5000 nM	10 to 100 nM	10 to 100 nM	10 to 100 nM	–
CCn1c(-c2cnccc2COC)c2c3cc(ccc31)-c1cc(O)cc(c1)C[C@H](NC(=O)[C@H](C(C)C)N(C)C(=O)CN(C)C(=O)[C@@H]1[C@H](C(=O)OC)N1[S@@+]([O-])C(C)(C)C)C(=O)N1CCC[C@H](N1)C(=O)OCC(C)(C)C2 (stereo partly shown) [Compound 50]	100 to 1000 nM	10 to 100 nM	> 10000 nM	100 to 1000 nM	100 to 1000 nM	10 to 100 nM	10 to 100 nM	< 5000 nM	10 to 100 nM	100 to 1000 nM	10 to 100 nM	–
CCn1c(-c2cnccc2COC)c2c3cc(ccc31)-c1cc(O)cc(c1)C[C@H](NC(=O)[C@H](C(C)C)N(C)C(=O)CN(C)C(=O)[C@H]1[C@@H](C3CC3)N1[S@+]([O-])C(C)(C)C)C(=O)N1CCC[C@H](N1)C(=O)OCC(C)(C)C2 (stereo partly shown) [Compound 52]	10 to 100 nM	100 to 1000 nM	1000 to 10000 nM	100 to 1000 nM	100 to 1000 nM	10 to 100 nM	10 to 100 nM	< 5000 nM	100 to 1000 nM	100 to 1000 nM	10 to 100 nM	–
CCn1c(-c2cccnc2[C@H](C)OC)c2c3cc(ccc31)-c1cc(O)cc(c1)C[C@H](NC(=O)[C@H](C(C)C)N1CC[C@@]3(CCCN(C(=O)[C@@H]4CN4)C3)C1=O)C(=O)N1CCC[C@H](N1)C(=O)OCC(C)(C)C2 [Compound 191]	10 to 100 nM	10 to 100 nM	–	100 to 1000 nM	100 to 1000 nM	10 to 100 nM	10 to 100 nM	–	100 to 1000 nM	–	10 to 100 nM	IC50 (AsPC-1 (K-Ras G12D) [1]; [14]): 1000 to 10000 nM; EC50 (AsPC-1 (K-Ras G12D) [2]; [15]): < 5000 nM; IC50 (NCI-H358 (K-Ras G12C); [16]): 10 to 100 nM
CCn1c(-c2cnccc2COC)c2c3cc(ccc31)-c1cc(O)cc(c1)C[C@H](NC(=O)[C@H](C(C)C)N(C)C(=O)CN(C)C(=O)[C@H]1CN1)C(=O)N1CCC[C@H](N1)C(=O)OCC(C)(C)C2 [Example 7, (2R)—N-(2-(((2S)-1-(((6^3S,4S)-1^1-ethyl-2^5-hydroxy-1^2-(4-(methoxymethyl)pyridin-3-yl)-10,10-dimethyl-5,7-dioxo-6^1,6^2,6^3,6^4,6^5,6^6-hexahydro-1^1H-8-oxa-1(5,3)-indola-6(1,3)-pyridazina-2(1,3)-benzenacycloundecaphane-4-yl)amino)-3-methyl-1-oxobutan-2-yl)(methyl)amino)-2-oxoethyl)-N-methylaziridine-2-carboxamide]	–	–	–	–	–	–	–	< 5000 nM	–	–	–	IC50 (KRAS WT): 100 to 1000 nM; IC50 (KRAS G13C): 10 to 100 nM; IC50 (AsPC-1 (K-Ras G12D) [1]; [17]): 100 to 1000 nM; IC50 (KRAS G13D): 100 to 1000 nM; IC50 (KRAS G12D): 100 to 1000 nM; IC50 (NRAS G12C; [18]): < 10 nM; IC50 (KRAS G12S): 10 to 100 nM; IC50 (KRAS G12V): 100 to 1000 nM; IC50 (NCI-H358 (K-Ras G12C); [19]): 10 to 100 nM; IC50 (KRAS G12C): < 10 nM
CCn1c(-c2cccnc2[C@H](C)OC)c2c3cc(ccc31)-c1cc(O)cc(c1)C[C@H](NC(=O)[C@H](C1CCCC1)N(C)C(=O)[C@H]1CCN(C(=O)[C@H]3CN3)C1)C(=O)N1CCC[C@H](N1)C(=O)OCC(C)(C)C2 [Compound 58]	10 to 100 nM	10 to 100 nM	–	10 to 100 nM	100 to 1000 nM	< 10 nM	10 to 100 nM	–	10 to 100 nM	–	< 10 nM	IC50 (AsPC-1 (K-Ras G12D) [1]; [14]): 100 to 1000 nM; EC50 (AsPC-1 (K-Ras G12D) [2]; [15]): < 5000 nM; IC50 (NCI-H358 (K-Ras G12C); [16]): < 10 nM
CCn1c(-c2cnccc2COC)c2c3cc(ccc31)-c1cc(O)cc(c1)C[C@H](NC(=O)[C@H](C(C)C)N(C)C(=O)CN(C)C(=O)[C@H]1CN1Cc1ccccc1)C(=O)N1CCC[C@H](N1)C(=O)OCC(C)(C)C2 (stereo partly shown) [Compound 9]	–	–	–	–	–	–	–	< 5000 nM	–	–	–	IC50 (KRAS WT): 100 to 1000 nM; IC50 (KRAS G13C): 100 to 1000 nM; IC50 (AsPC-1 (K-Ras G12D) [1]; [17]): 1000 to 10000 nM; IC50 (KRAS G13D): 100 to 1000 nM; IC50 (KRAS G12D): 1000 to 10000 nM; IC50 (NRAS G12C; [18]): 10 to 100 nM; IC50 (KRAS G12S): 100 to 1000 nM; IC50 (KRAS G12V): 100 to 1000 nM; IC50 (NCI-H358 (K-Ras G12C); [19]): 10 to 100 nM; IC50 (KRAS G12C): 10 to 100 nM
CCn1c(-c2cnccc2COC)c2c3cc(ccc31)-c1cc(O)cc(c1)C[C@H](NC(=O)[C@H](C(C)C)N(C)C(=O)CN(C)C(=O)C1CN1C(C)=O)C(=O)N1CCC[C@H](N1)C(=O)OCC(C)(C)C2 (stereo partly shown) [Compound 14]	100 to 1000 nM	10 to 100 nM	1000 to 10000 nM	100 to 1000 nM	100 to 1000 nM	10 to 100 nM	100 to 1000 nM	< 5000 nM	100 to 1000 nM	100 to 1000 nM	10 to 100 nM	–
